{"source": "patent US20120141983A1", "about": "“Quantitative Aggregation Sensors” (priority 2010, published 2012)", "key": {"[1]": {"system": "sLucAβ", "assay": "Effect of small molecule aggregation inhibitors on secreted reporter in inducible cell lines", "type": "cell-based", "conditions": "1 μM compound, 24 hours", "description": "(§1) 293T FlipInTrex (Invitrogen) cells. 293T FlipInTrex cells were grown as described above, using Tet Approved Fetal Bovine Serum (Clontech) and supplementing the medium with Zeocin 100 μg/mL (Invitrogen) and Blasticidin 15 μg/ml (InVivoGen, San Diego, USA). Zeocin selects for the lacZeo inserted into FRT sites in the genome, and Blasticidin selects for Tet repressor expression. For the generation of isogenic stable doxycycline inducible cell lines, cells were co-transfected overnight using Lipofectamine 2000 with the pcDNA5/FRT/TO vectors containing the fusion proteins-IRES-(NLS)3EGFP cassettes, and the pOGG-Flp recombinase plasmid (Invitrogen) at a ratio pcDNA/pOGG of 1:9. On day 2, cells were replated at −25% confluency, and selection for recombined clones was started by supplementing the medium with 75 μg/ml Hygromycin (InvivoGen) and Zeocin 100 μg/mL. Medium was exchanged every 2-3 days until colonies appeared. Cells were adapted to cell culture media containing 5% Tet approved Fetal Bovine Serum (Clontech), and 5% Serum Replacement 3 (Sigma). […] Expression of the chimeric reporter proteins was induced by addition of 0.75 μg/mL Doxycycline (Sigma-Aldrich) to cell culture medium, and tested for luciferase activity and western-blot (see below).\nEffect of Small Molecule Inhibitors of Aβ42 aggregation in inducible cell lines. Congo Red, Rosmarinic acid, Quercetin, scyllo-inositol, and (−)-Epigallocatechin gallate (EGCG) were purchased from Sigma-Aldrich, and dissolved in DMSO. Cells were plated in 96-well plates and allowed to attach overnight. Cell medium without antibiotics was prepared containing 2× of the final compound concentration (1 μM) and 2× of final doxycycline concentration (0.75 μgr/ml) and diluted to 1× with media in the well. Control cells were treated with medium containing the same volume of DMSO. 8 wells were treated per condition. After 24 hours, 4 wells were harvested for luciferase assays, and 4 wells were used for cell survival assays.\nsLuc Metridia activity. sLuc Metridia activity was measured using the same plates and instrument described above. Metridia reagent was prepared as described in (G. A. Stepanyuk et al., 2008, Protein Expr Purif 61, 142). Coelenterazine, native (Biosynth AG, Staad, Switzerland) was brought up at 1.43 mM in Methanol acidified with 1N HCl and diluted to 7.2 μM in 20 mM Tris-HCl 0.3M NaCl pH7.5 (Sigma-Aldrich). 20 μl of cell medium were transferred to white 96-well plates, 50 μl of reagent was injected, and every well was read for 5 s followed by a 3s delay. sLuciferase activity is measured in Relative Luminiscence Units (RLU).\n(§2) Cell survival was measured using Cell titer Blue kit (Promega). […] After 1 hour incubation at 37° C., fluorescence was recorded in a Spectramax M5 plate reader, using excitation at 560 nm and emission at 590 nm in Relative Fluorescence Units (RFU).\n(§3) Effect of small molecule inhibitors of Aβ42 in the inducible cell lines. The ratio luciferase activity/cell survival (Rsmall molecule) was calculated as shown in eq. […] Four technical replicates were measured per molecule for each test. Standard deviation was calculated using eq. […]\n(§4) Comparing the Fold inhibition ratio of a given molecule in the Aβ42 and SH3 sensors allows the identification of molecules that change the ratios by mechanisms non-specific to aggregation such as toxicity or interference with luciferase activity. […] Standard errors were calculated using Error propagation theory. […]"}, "[2]": {"target": "T1, synthetic Aβ42 (Homo sapiens, UniProt P05067)", "T1 construct": "a fragment comprising residues 672-713 of Aβ (“Aβ42”); purchased Bachem", "T1 sequence (P05067 672-713)": "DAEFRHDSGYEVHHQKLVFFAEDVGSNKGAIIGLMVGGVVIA", "assay": "Inhibition of in vitro aggregation of synthetic Aβ42 by small molecules (ThT fluorescence)", "type": "biochemical", "conditions": "1 μM compound, 25 μM Aβ42, 1 day at 30° C.", "description": "(§5) Aβ42, Aβ40, Aβ42F20E and Aβ42E22G peptides (Bachem, Torrance, USA) were disaggregated using Hexafluoro-2-propanol (HFIP, Sigma-Aldrich) following the protocol described elsewhere (C. Goldsbury, et al., 2005, J Mol Biol 352, 282), and aliquoted into low protein binding tubes (Eppendorf).\nEffect of small molecule inhibitors of Aβ42 aggregation. 2 mM Aβ42 stock solutions in DMSO) were sonicated for 5 minutes, and diluted to final 25 μM concentration in PBS (Gibco). Small molecules were added to final 1 μM concentration, the final DMSO concentration in all samples and control was kept equal. Samples were incubated for 1 day at 30° C., and tested for Aβ42 aggregation using Thioflaving T (Tht, Sigma-Aldrich) binding monitored by fluorescence (excitation 450 nm/emission 485 nm). Tht was prepared at 5 μM in 20 mM Glycine pH=8 buffer. 10 μl of sample were plated in triplicates in clear bottom non-binding black plates (Corning), and 100 μl of Tht were added. After 5 minutes of incubation at room temperatures, fluorescence was read. Data were corrected by Tht alone fluorescence, and normalized by the Tht intensity of the control solution, Aβ42+DMSO. Ratios and standard deviations were calculated as described in the Data Analysis section."}, "[3]": {"system": "cLucAβ", "assay": "Effect of small molecule aggregation inhibitors on cytoplasmic reporter in inducible cell lines", "type": "cell-based", "conditions": "1 μM compound, 24 hours", "description": "as §1\nEffect of Small Molecule Inhibitors of Aβ42 aggregation in inducible cell lines. Congo Red, Rosmarinic acid, Quercetin, scyllo-inositol, and (−)-Epigallocatechin gallate (EGCG) were purchased from Sigma-Aldrich, and dissolved in DMSO. Cells were plated in 96-well plates and allowed to attach overnight. […]\ncLuciferase Firefly activity. […] 20 μl of cellular lysate were transferred to white 96-well plates (Corning), 100 μl of luciferase reagent were injected, and every well was read for 5 s followed by 3 s delay to minimize cross-talk between wells using a Modulus Microplate Multimode Reader (Turner Biosystems Inc., Sunnyvale, Calif., USA). cLuciferase activity is measured in Relative Luminiscence Units (RLU).\nas §2, §3, §4"}, "[4]": {"system": "cytoplasmic and secreted reporters", "assay": "Thapsigargin effect on activity of cytoplasmic and secreted reporters in inducible 293FlpInTrex cell lines", "type": "cell-based", "conditions": "24 hours, different concentrations", "description": "FIG. 16: Changes in proteostasis pathways 96 hours postinduction (A) relative mRNA levels of cells expressing cLucAβ or sLucAβ versus cLucSH3 or sLucSH3 measured by qPCR; (B) Protein expression analysed by Western blot. (C) Activity of cytoplasmic and secreted reporters normalized by cell survival in the presence of different concentrations of Thapsigargin compared to solvent alone. Data are means±s.d. Experiments were carried out using doxycyline inducible 293FlpInTrex cell lines expressing the aggregation sensors.\n293T FlipInTrex (Invitrogen) cells. 293T FlipInTrex cells were grown as described above, using Tet Approved Fetal Bovine Serum (Clontech) and supplementing the medium with Zeocin 100 μg/mL (Invitrogen) and Blasticidin 15 μg/ml (InVivoGen, San Diego, USA). Zeocin selects for the lacZeo inserted into FRT sites in the genome, and Blasticidin selects for Tet repressor expression. […]\nas §2"}, "[5]": {"assay": "In vitro Aβ42 aggregation kinetics by Thioflavin T fluorescence", "type": "physicochemical", "conditions": "25 μM in PBS, 30° C., ThT", "description": "as §5\nIn vitro Aβ42 kinetic experiment. 25 μM Aβ42 in PBS was incubated at 30° C. Aliquots were withdrawn at different time points, and Tht binding was measured in triplicates."}}}
{"molecule": "Nc1c(/N=N/c2ccc(-c3ccc(/N=N/c4cc(S(=O)(=O)O)c5ccccc5c4N)cc3)cc2)cc(S(=O)(=O)O)c2ccccc12", "note": "[Congo Red]", "values": [{"measurement": "effect on sLucAβ activity compared to solvent alone", "setting": "[1]", "value": "did not increase the activity"}, {"measurement": "inhibition of in vitro aggregation of synthetic Aβ42 by ThT fluorescence", "setting": "[2]", "value": "potently inhibited"}]}
{"molecule": "O=c1c(O)c(-c2ccc(O)c(O)c2)oc2cc(O)cc(O)c12", "note": "[Quercetin]", "values": [{"measurement": "effect on sLucAβ activity compared to solvent alone", "setting": "[1]", "value": "significantly increased activity"}, {"measurement": "effect on cLucAβ activity compared to solvent alone", "setting": "[3]", "value": "no effect"}]}
{"molecule": "O=C(/C=C/c1ccc(O)c(O)c1)O[C@H](Cc1ccc(O)c(O)c1)C(=O)O", "note": "[Rosmarinic acid]", "values": [{"measurement": "effect on sLucAβ activity compared to solvent alone", "setting": "[1]", "value": "significantly increased activity"}, {"measurement": "effect on cLucAβ activity compared to solvent alone", "setting": "[3]", "value": "no effect"}]}
{"molecule": "O[C@H]1[C@H](O)[C@@H](O)[C@H](O)[C@@H](O)[C@@H]1O", "note": "[Scilloinositol, scyllo-inositol]", "values": [{"measurement": "effect on sLucAβ activity compared to solvent alone", "setting": "[1]", "value": "significantly increased activity"}, {"measurement": "effect on cLucAβ activity compared to solvent alone", "setting": "[3]", "value": "no effect"}]}
{"molecule": "C/C=C(/C)C(=O)O[C@H]1C(C)=C2[C@H]([C@@H]1OC(=O)CCCCCCC)[C@@](C)(OC(C)=O)C[C@H](OC(=O)CCC)[C@@]1(O)[C@H]2OC(=O)[C@@]1(C)O", "note": "[TG, Thapsigargin]", "values": [{"measurement": "effect on aggregation sensor activity normalized by cell survival", "setting": "[4]", "value": "increase of only sAβ activity in a TG dose-dependent manner"}]}
{"molecule": "(−)-Epigallocatechin gallate [EGCG]", "values": [{"measurement": "effect on sLucAβ activity compared to solvent alone", "setting": "[1]", "value": "significantly increased activity"}, {"measurement": "effect on cLucAβ activity compared to solvent alone", "setting": "[3]", "value": "no effect"}]}
{"molecule": "synthetic Aβ peptide: synthetic Aβ42 peptide (Bachem) used for in vitro aggregation", "values": [{"measurement": "exponential phase of in vitro aggregation", "setting": "[5]", "value": "6 to 24", "unit": "h"}, {"measurement": "plateau of in vitro aggregation", "setting": "[5]", "value": "24 to 72", "unit": "h"}]}
